Reference: patent US20240158446A1, “CYCLIC COMPOUND HAVING SELECTIVE INHIBITORY ACTION ON KRAS OVER HRAS AND NRAS” (CHUGAI SEIYAKU KABUSHIKI KAISHA, priority 2021, published 2024)
*1 amine or outer side, *2 acyl side, *3 side chain or, on linkers, in order; H or OH if unused. Where a SMILES comes first, the peptide text is derived from it. Bridges are numbered along the chain shown (N, C = ends). [ ]: non-standard residue; d: D form. The star is where a group is joined. hPhe(3-Cl-4-CF3) = N[C@@H](CCc1ccc(C(F)(F)F)c(Cl)c1)C(=O)O; X20 = Cc1ccc(C[C@@H](C(=O)[*:2])N(CC2CCCC2)[*:1])cc1; NMePhe(4-CF3) = CN[C@@H](Cc1ccc(C(F)(F)F)cc1)C(=O)O; NPrPhe(4-Me) = CCCN[C@@H](Cc1ccc(C)cc1)C(=O)O; NMeGly(cPent) = CN[C@H](C(=O)O)C1CCCC1; NMeD = CN[C@@H](CC(=O)O)C(=O)O; NMeL = CN[C@@H](CC(C)C)C(=O)O; Morpholide = C1CN(*)CCO1; NMeA = CN[C@@H](C)C(=O)O; Ac5c = NC1(C(=O)O)CCCC1; Aze = O=C(O)[C@@H]1CCN1; NEtG = CCNCC(=O)O; Sar = CNCC(=O)O

What was measured:
[1] = target: GDP-bound NRAS wild-type protein (Homo sapiens, UniProt P01111); assay: Binding to NRAS by surface plasmon resonance (SPR), Single Cycle Kinetics; settings: SPR, GDP-bound NRAS wild-type protein vs GDP-bound KRAS wild-type protein
Sequence of GDP-bound NRAS wild-type protein (P01111 whole entry): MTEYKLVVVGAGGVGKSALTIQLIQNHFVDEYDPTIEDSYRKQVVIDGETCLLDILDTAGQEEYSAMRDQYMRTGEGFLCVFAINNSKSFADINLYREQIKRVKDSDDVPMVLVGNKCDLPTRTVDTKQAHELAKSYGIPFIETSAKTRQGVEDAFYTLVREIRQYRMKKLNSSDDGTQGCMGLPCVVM

[2] = target: GDP-bound HRAS wild-type protein (Homo sapiens, UniProt P01112); assay: Binding to HRAS by surface plasmon resonance (SPR), Single Cycle Kinetics; settings: SPR, GDP-bound HRAS wild-type protein vs GDP-bound KRAS wild-type protein
Sequence of GDP-bound HRAS wild-type protein (P01112 whole entry): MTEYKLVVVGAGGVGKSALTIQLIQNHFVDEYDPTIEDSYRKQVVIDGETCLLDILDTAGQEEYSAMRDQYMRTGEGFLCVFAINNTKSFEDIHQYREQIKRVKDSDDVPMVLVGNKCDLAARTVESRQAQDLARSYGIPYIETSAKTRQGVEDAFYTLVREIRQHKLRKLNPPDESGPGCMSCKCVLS

[3] = target: GDP-bound KRAS wild-type protein (Homo sapiens, UniProt P01116); assay: Binding to KRAS by surface plasmon resonance (SPR), Single Cycle Kinetics; settings: SPR Single Cycle Kinetics, GDP-bound KRAS wild-type protein, 1:1 binding model; read-out: KRAS KD
Sequence of GDP-bound KRAS wild-type protein (P01116 whole entry): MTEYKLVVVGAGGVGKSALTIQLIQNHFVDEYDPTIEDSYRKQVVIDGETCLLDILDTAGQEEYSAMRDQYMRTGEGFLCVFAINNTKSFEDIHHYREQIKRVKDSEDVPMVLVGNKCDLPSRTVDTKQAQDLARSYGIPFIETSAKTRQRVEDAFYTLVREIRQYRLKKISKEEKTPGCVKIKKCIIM

Row | Compound | Kd [3] [nM] | NRAS/KRAS (ratio of KD value for NRAS to KD value for KRAS) [1] | HRAS/KRAS (ratio of KD value for HRAS to KD value for KRAS) [2]
1 | CCCN1C(=O)CN(CC)C(=O)CN(C)C(=O)[C@H]([C@@H](C)CC)NC(=O)[C@H](CC(C)C)N(C)C(=O)C[C@@H](C(=O)N2CCOCC2)N(C)C(=O)[C@H](C2CCCC2)N(C)C(=O)C2(CCCC2)NC(=O)[C@@H]2CCCN2C(=O)[C@H](CCc2ccc(C(F)(F)F)c(Cl)c2)NC(=O)CN(CC)C(=O)[C@@H]1Cc1ccc(C)cc1 [PP0069] ([NMeL]I[Sar][NEtG][NPrPhe(4-Me)][NEtG][hPhe(3-Cl-4-CF3)]P[Ac5c][NMeGly(cPent)][NMeD]-Morpholide; lactam N-11) | 6.9 | C (A compound having a KD ratio of 0.1 or more and less than 3 is denoted as C) | C (A compound having a KD ratio of 0.1 or more and less than 3 is denoted as C)
2 | CC[C@H](C)[C@@H]1NC(=O)[C@H](CC(C)C)N(C)C(=O)C[C@@H](C(=O)N2CCOCC2)N(C)C(=O)[C@H](C2CCCC2)N(C)C(=O)C2(CCCC2)NC(=O)[C@@H]2CCCN2C(=O)[C@H](CCc2ccc(C(F)(F)F)c(Cl)c2)NC(=O)CN(C)C(=O)[C@H](Cc2ccc(C)cc2)N(CC2CCCC2)C(=O)[C@@H]2CCN2C(=O)[C@H](C)N(C)C1=O [PP0084] ([NMeL]I[NMeA][Aze][X20][Sar][hPhe(3-Cl-4-CF3)]P[Ac5c][NMeGly(cPent)][NMeD]-Morpholide; lactam N-11) | 2.7 | C (A compound having a KD ratio of 0.1 or more and less than 3 is denoted as C) | B (a compound having 3 or more and less than 10 is denoted as B)

Compounds with a lower Kd [3], results first:

Row | Kd [3] [nM] | Compound | NRAS/KRAS (ratio of KD value for NRAS to KD value for KRAS) [1] | HRAS/KRAS (ratio of KD value for HRAS to KD value for KRAS) [2]
3 | 0.54 | CCCN1C(=O)CN(CC)C(=O)CN(C)C(=O)[C@H]([C@@H](C)CC)NC(=O)[C@H](CC(C)C)N(C)C(=O)C[C@@H](C(=O)N2CCOCC2)N(C)C(=O)[C@H](C2CCCC2)N(C)C(=O)C2(CCCC2)NC(=O)[C@@H]2CCCN2C(=O)[C@H](CCc2ccc(C(F)(F)F)c(Cl)c2)NC(=O)CN(C)C(=O)[C@@H]1Cc1ccc(C)cc1 [PP0065] ([NMeL]I[Sar][NEtG][NPrPhe(4-Me)][Sar][hPhe(3-Cl-4-CF3)]P[Ac5c][NMeGly(cPent)][NMeD]-Morpholide; lactam N-11) | C (A compound having a KD ratio of 0.1 or more and less than 3 is denoted as C) | C (A compound having a KD ratio of 0.1 or more and less than 3 is denoted as C)
4 | 1.4 | CCCN1C(=O)CN(C)C(=O)CN(C)C(=O)[C@H]([C@@H](C)CC)NC(=O)[C@H](CC(C)C)N(C)C(=O)C[C@@H](C(=O)N2CCOCC2)N(C)C(=O)[C@H](C2CCCC2)N(C)C(=O)C2(CCCC2)NC(=O)[C@@H]2CCCN2C(=O)[C@H](CCc2ccc(C(F)(F)F)c(Cl)c2)NC(=O)CN(CC)C(=O)[C@@H]1Cc1ccc(C)cc1 [PP0066] ([NMeL]I[Sar][Sar][NPrPhe(4-Me)][NEtG][hPhe(3-Cl-4-CF3)]P[Ac5c][NMeGly(cPent)][NMeD]-Morpholide; lactam N-11) | B (a compound having 3 or more and less than 10 is denoted as B) | C (A compound having a KD ratio of 0.1 or more and less than 3 is denoted as C)
5 | 0.064 | CC[C@H](C)[C@@H]1NC(=O)[C@H](CC(C)C)N(C)C(=O)C[C@@H](C(=O)N2CCOCC2)N(C)C(=O)[C@H](C2CCCC2)N(C)C(=O)C2(CCCC2)NC(=O)[C@@H]2CCCN2C(=O)[C@H](CCc2ccc(C(F)(F)F)c(Cl)c2)NC(=O)CN(C)C(=O)[C@H](Cc2ccc(C(F)(F)F)cc2)N(C)C(=O)CN(C)C(=O)CN(C)C1=O [PP0076] ([NMeL]I[Sar][Sar][NMePhe(4-CF3)][Sar][hPhe(3-Cl-4-CF3)]P[Ac5c][NMeGly(cPent)][NMeD]-Morpholide; lactam N-11) | C (A compound having a KD ratio of 0.1 or more and less than 3 is denoted as C) | C (A compound having a KD ratio of 0.1 or more and less than 3 is denoted as C)
